Measurements from publication PMC8545574, “Antioxidant, Anti-Inflammatory, and Antidiabetic Activities of Bioactive Compounds from the Fruits of Livistona chinensis Based on Network Pharmacology Prediction” (Oxidative Medicine and Cellular Longevity, 2021).

Legend:
[1] = DPPH free radical scavenging assay; format: biochemical; settings: mean ± SD, n = 3
Procedure: The DPPH free radical scavenging assay was performed according to a previously reported method. A series of different concentrations of the tested samples and the positive control ascorbic acid were mixed with freshly prepared DPPH (0.2 mM) in a 96-well microplate with a total volume of 150 μL. After leaving the mixture to react in the dark for 30 min, its absorbance was determined at 517 nm. All of the wells with only samples were set as blanks to obtain an absorbance value, which was subtracted from the test sample readings. The percentage inhibition (%) for each sample was calculated by the following formula: (1) Inhibition %=Absblank−Abssamples/Absblank×100%, where Absblank and Abssamples correspond to the absorbance units (at 517 nm) of DPPH solutions incubated in the absence and presence of the tested samples.

[2] = ABTS radical cation scavenging assay; format: biochemical; settings: mean ± SD, n = 3
Procedure: The ABTS radical cation (ABTS·+) was prepared by reacting ABTS with potassium persulfate following the method previously described. The ABTS radical cation (ABTS·+) was prepared by mixing with 2.45 mM potassium persulfate and equal volumes of an ABTS solution (7 mM), and then, they were permitted to react in the darkness at room temperature for 12–16 h. Thereafter, the ABTS reagent was diluted with methyl alcohol until reaching an absorbance of 0.70 ± 0.02 units at 734 nm. In a 96-well microplate, ABTS reagent (190 μL in each well) and samples (10 μL in each well) were incubated at room temperature for 20 min. To determine the antioxidant capacity by the ABTS method, the experimental conditions and protocol were identical to those of the DPPH assay. The only difference was that the absorbance was measured at 734 nm.

[3] = tested on: LPS-stimulated NO release in RAW 264.7 cells; experiment: Nitrite (Griess) assay of LPS-stimulated NO release; format: cell-based; settings: Mus musculus, RAW264.7, LPS (1 μg/mL)-stimulated RAW 264.7 cells; mean ± SD, n = 3; read-out: IC50 NO production anti-inflammatory effect
Procedure: The level of NO production was tested by measuring the nitrite level in the culture medium with the Griess method. Cells were seeded at a density of 2 × 10^4 cells per well in 96-well plates. […] A microplate reader was employed for the optical density measurement at 570 nm.

[4] = tested on: insulin-resistant HepG2 cells; experiment: Glucose consumption by insulin-resistant HepG2 cells; format: cell-based, human; settings: for effect on glucose uptake (in words): insulin-resistant HepG2 cells; for increase of glucose consumption: insulin resistance model of HepG2 cells, compounds at the dose of 50 μM, 24 h
Procedure: HepG2 cells were cultivated in DMEM (without phenol red) containing 10% fetal bovine serum at 37°C in a humidified 5% CO2 atmosphere. An insulin-resistant cell model was established in accordance with a previous method, with some modifications. Cells were seeded in a 96-well plate with 1 × 10^4 cells per well. After incubation for 24 h, the medium was replaced with serum-free medium (without phenol red) containing 5 × 10^−6 mol/L insulin and incubated for 24 h. The cell culture medium was then replaced with the samples at different concentrations. The compounds were first dissolved in DMSO and subsequently diluted with medium containing 1% FBS to achieve different concentrations. The final concentration of DMSO was no more than 0.1%. At the end of the 24 h incubation, glucose in the medium was measured using the glucose oxidase-peroxidase method kit (Nanjing Jiancheng Biological Co., Ltd.). The amount of glucose consumption was calculated as follows: (glucose of the DMEM − glucose concentration of each well).

[5] = target: T1, PTP1B (Homo sapiens, UniProt P18031); experiment: PTP1B inhibitory assay (p-NPP substrate)
T1 sequence (P18031 1-321 limits assumed): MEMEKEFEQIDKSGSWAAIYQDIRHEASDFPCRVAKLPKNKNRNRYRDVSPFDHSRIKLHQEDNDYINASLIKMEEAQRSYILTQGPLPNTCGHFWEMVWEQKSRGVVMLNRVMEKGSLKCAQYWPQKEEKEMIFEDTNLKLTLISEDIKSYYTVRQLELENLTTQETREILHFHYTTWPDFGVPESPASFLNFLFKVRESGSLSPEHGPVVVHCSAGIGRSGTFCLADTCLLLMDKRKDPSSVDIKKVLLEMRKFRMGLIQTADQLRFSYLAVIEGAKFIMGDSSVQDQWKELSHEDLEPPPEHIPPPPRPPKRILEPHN
Procedure: PTP1B (10 μg/mL stock solution) was dissolved in 10 mM citrate buffer (pH 6.0), 1 mM dithiothreitol (DTT), and 1 mM N, N, N′, N′-ethylenediaminetetraacetate (EDTA). 20.0 μL PTP1B stock solution and 60 μL citrate buffer were added to each well of a 96-well plastic plate.

[6] = target: α-Glucosidase (from Baker's yeast); experiment: α-Glucosidase inhibitory assay (p-NPG substrate); settings: read-out: IC50 α-Glucosidase inhibitory effect; mean ± SD, n = 3
Procedure: The extract, fractions, and compounds were dissolved in 5% DMSO and then diluted with phosphate buffer. Briefly, 80 μL PBS, 20 μL of varying concentrations of sample solutions, and 20 μL α-glucosidase solution (1.3 U/mL) were mixed and incubated in 96-well plates at 37°C for 5 min. The reaction started when 20 μL p-nitrophenyl-α-D-glucopyranoside (2.5 mM) was added to the plate. The reaction mixture was incubated for 15 min at 37°C, and then, 80 μL Na2CO3 (0.2 M) was added to stop the reaction.

[7] = target: T1, PTP1B; experiment: PTP1B enzyme inhibition kinetic study (Lineweaver-Burk and Dixon plots); format: biochemical; parameters: purchased Abcam (Shanghai) Trading Co., Ltd. ab51277; settings: for Ki: determined by Dixon plots; for Inhibitory mode: determined by Lineweaver-Burk plots
Procedure: Lineweaver−Burk double reciprocal plot and Dixon plot were used to study the kinetic behavior of active compounds against PTP1B and the corresponding inhibition constants (Ki values). […] The plate reader recorded the absorbance of the reaction mixture every 3 mins. The enzymatic velocity of the enzyme reaction was calculated based on the time − Δabs plot. The Lineweaver−Burk plot and Dixon plot were generated by GraphPad Prism 8 in order to determine the type of PTP1B inhibition and Ki.

[8] = target: T1, PTP1B; experiment: Fluorescence quenching measurement of PTP1B; format: binding; parameters: purchased Abcam (Shanghai) Trading Co., Ltd. ab51277; settings: for Kd: read-out: K A (binding constant) (converted)
Procedure: 180 μL of the buffer with 10 μL of the PTP1B at the concentration used in the assays were added into the 96-well black plates followed by 10 μL different concentrations (0, 6.25, 9.37, 12.5, 18.75, 25, and 50 μM) of inhibitor. The excitation wavelength was set at 250 nm, and the fluorescence emission spectra were collected from 300-400 nm with an emission bandwidth of 2 nm. The quenching parameters such as the Stern-Volmer constant (KSV), binding constant (KA), and the number of binding sites (n) were determined by the formula [33]. (4) F0/F=1+KSVQf,logFo−F/F=logKA+nlogQf, where F0 and F are the fluorescence intensities in the absence and presence of a quencher and [Q]f is a concentration of compounds.

Row | SMILES | IC50 [1] | IC50 [2] | IC50 [3] | effect on glucose uptake (in words) [4] | IC50 [5] | IC50 [6] | Ki [7] | Inhibitory mode [7] | K SV (Stern-Volmer constant) [8] | n (number of binding sites) [8] | Kd [8] | increase of glucose consumption [4]
1 | COc1c(O)cc(O)c2c(=O)cc(-c3ccccc3)oc12 [Compound 6, wogonin] | 99.36 ± 0.44 µM | > 100 µM | 49.4 ± 1.85 µM | little effect | 22.2 ± 0.58 µM | > 100 µM | 4.18 µM | Mixed-type | 22000 L/mol | 1.12 | 76.9 µM | –
2 | COC1(C)CC2c3c(cc(O)cc3O1)OC(c1ccc(O)c(O)c1)C2O (stereo not shown) [Compound 1, Livischinol] | 46.8 ± 1.53 µM | 34.91 ± 0.07 µM | – | stimulated glucose uptake | 9.41 ± 0.08 µM | 37.3 ± 0.74 µM | 1.49 µM | Competitive | 37000 L/mol | 1.08 | 10.5 µM | 48.9%
3 | COc1cc(O)cc2c1C(=O)c1c(cc(C)c(C(=O)OCC(O)CO)c1O)C2=O (stereo not shown) [Compound 44, variecolorquinones A] | 23.1 ± 0.27 µM | 13 ± 0.27 µM | – | stimulated glucose uptake | 15.8 ± 0.29 µM | 29.6 ± 0.4 µM | 2.8 µM | Competitive | 23000 L/mol | 0.97 | 17.2 µM | 42.8%
4 | CN(CCOc1ccc(CC2SC(=O)NC2=O)cc1)c1ccccn1 (stereo not shown) [rosiglitazone, reference compound] | – | – | – | – | – | – | – | – | – | – | – | 46.7%
5 | COc1cc([C@H]2OC[C@H]3[C@H]2CO[C@@H]3c2cc(OC)c(O[C@@H](CO)[C@@H](O)c3cc(OC)c(O)c(OC)c3)c(OC)c2)cc(OC)c1O [Compound 36, (7S,7′S,7^″S,8R,8′R,8^″R)-4′,4^″-dihydroxy-3,3′,3^″,5,5′,5^″-hexamethoxy-7,9′:7′,9-diepoxy-4,8^″-oxy-8,8′-sesquineolignan-7^″,9^″-diol] | 62.44 ± 0.42 µM | 31.1 ± 0.44 µM | 79.7 ± 1.17 µM | – | 63.19 ± 0.33 µM | 22.7 ± 1.07 µM | – | – | – | – | – | –
6 | COc1cc(C2Oc3c(OC)cc(CCCO)cc3C2CO)cc(OC)c1O [Compound 14, (7S,8R)-5-methoxydihydrodehydroconiferyl alcohol] | 60.3 ± 0.16 µM | 45.13 ± 0.41 µM | 70 ± 5.33 µM | – | > 100 µM | 62.2 ± 1.03 µM | – | – | – | – | – | –
7 | COc1cc(C2Oc3c(OC)cc(CCCO)cc3C2CO)ccc1OC(CO)CO [Compound 15, (7S,8R)-9,9′-dihydroxyl-3,3′-dimethoxyl-4-O-glycerol-7,8-dihydrobenzofuran-1′-propanolneoligan] | > 100 µM | > 100 µM | 13.2 ± 0.36 µM | – | > 100 µM | > 100 µM | – | – | – | – | – | –
8 | COc1cc([C@@H](O)[C@H](CO)Oc2ccc(CCCO[C@@H]3O[C@H](CO)[C@@H](O)[C@H](O)[C@H]3O)cc2OC)ccc1O [Compound 22, erythro-(7R,8S)-4,7,9,9′-tetrahydroxy-3,3′-dimethoxy-8-O-4′-neolignan-9′-O-β-D-glucopyranoside] | > 100 µM | 26.97 ± 0.21 µM | 83.16 ± 0.24 µM | – | 92.39 ± 0.71 µM | 73.1 ± 2.33 µM | – | – | – | – | – | –
9 | COc1cc(CCCO)ccc1O[C@@H](CO)[C@H](O)c1cc(OC)c(O)c(OC)c1 [Compound 21] | > 100 µM | 93 ± 0.54 µM | 55.54 ± 0.41 µM | – | 67 ± 1.2 µM | 61.8 ± 0.76 µM | – | – | – | – | – | –
10 | COc1cc(O)c2c(=O)cc(-c3ccc(O)cc3)oc2c1 [Compound 7, genkwanin] | 78.76 ± 0.61 µM | 63.11 ± 0.24 µM | 70.79 ± 0.67 µM | – | 30.2 ± 0.45 µM | > 100 µM | – | – | – | – | – | –
